In patent US20100130454A1, “9,10-SECOPREGNANE DERIVATIVES AND MEDICINE” (NIPPON SHINYAKU CO., LTD., priority 2004, published 2010):
Read-outs that look alike come from different tables or passages of the source.

Assays:
[1] = Action to raise calcium concentration in serum, repeated percutaneous administration; assay type: in vivo, rat; conditions: male SD rats, percutaneous 33 μg/200 μL/kg/day once daily for seven days, blood 24 hours after final administration
Method: A solution of the compound of the present invention mentioned in Example 1 or maxacalcitol in ethanol containing 0.3% of DMSO was repeatedly subjected to a percutaneous administration (33 μg/200 μL/kg/day) for seven days once daily onto the back of male rats (7 weeks of age) of the SD strain. An ethanol solution containing 0.3% of DMSO was administered to a control group. At 24 hours after the final administration, blood was collected and calcium concentration in serum was measured.

[2] = Metabolic rate in human liver microsome; assay type: in vitro ADME; conditions: pooled human liver microsome, 1 mg/mL protein, NADPH production system, pH 7.4, 37° C., HPLC
Method: Metabolic rates of the compounds of the present invention mentioned in Examples and maxacalcitol in human liver microsome were compared and investigated.
As to the pooled human liver microsome (HHM-0323), those manufactured by Tissue Transformation Technologies were used. A 0.25M potassium phosphate buffer (pH 7.4) (200 μL), 5 μL of a 250 μM solution of each compound to be tested in DMSO, 50 μL of an NADPH production system (where 20 mg of (β-NADP^+, 70 mg of glucose-6-phosphate, 40 units of glucose-6-phosphate dehydrogenase and 20 mg of magnesium chloride were dissolved in 1 mL of distilled water) and 220 μL of distilled water were added to a microtube and the mixture was subjected to a preincubation for 5 minutes at 37° C. Reaction was started by addition of 25 μL of human liver microsome (final concentration of protein: 1 mg/mL). Incubation was performed for 2, 10, 30 or 60 minutes and the reaction was stopped by addition of 500 μL of acetonitrile. After centrifugation at 13,000 rpm for 5 minutes, each test compound in the supernatant (25 μL) was measured by an HPLC under the following conditions.
Inertsil ODS-3 (4.6×150 mm; GL Science) was used as a column. With regard to mobile phase, a solution A (acetonitrile/0.1% aqueous solution of ammonium acetate=10/90) and a solution B (acetonitrile/0.1% aqueous solution of ammonium acetate=90/10) were used under the linear gradient conditions mentioned in Table 4. Column temperature, flow rate and wavelength for detection were set at 40° C., 1.0 mL/min. and UV 270 nm, respectively.
From the result of measurement by the above-mentioned HPLC, metabolic rates of the test compounds were calculated.

[3] = Action to raise the urinary excretion of calcium (1), repeated percutaneous administration; assay type: in vivo, rat; conditions: male SD rats, percutaneous 0.33, 3.3 and 33 μg/kg/day once daily for three days, urine collected every 24 hours, compared with control
Method: Open triangles show a control; open squares show the case where 0.33 μg/kg of the compound of Example 1 was administered; open rhombuses show the case where 3.3 μg/kg of the compound of Example 1 was administered; open circles show the case where 33 μg/kg of the compound of Example 1 was administered; black squares show the case where 0.33 μg/kg of maxacalcitol was administered; black rhombuses show the case where 3.3 μg/kg of maxacalcitol was administered; and black circles show the case where 33 μg/kg of maxacalcitol was administered.
A solution of the compound of the present invention mentioned in Example 1 or maxacalcitol in ethanol containing 0.3% of DMSO was repeatedly subjected to a percutaneous administration (0.33, 3.3 and 33 μg/200 μl/kg/day) for three days once daily onto the back of male rats (7 weeks of age) of the SD strain. An ethanol solution containing 0.3% of DMSO was administered to a control group. Calcium concentration in urine collected every 24 hours after administration on each day was measured and multiplied by the amount of urine to calculate the urinary excretion of calcium.

[4] = test system: human acute myelogenous leukemia cell line HL-60; assay: Ability to induce differentiation of HL-60 cells (oxygen radical production after phorbol ester stimulation, WST-1); assay type: cell-based; conditions: 72 hours incubation, then WST-1 and phorbol 12,13-didecanoate for 4 hours, absorbance at 450, read-out: EC50 (50%-maximal effect concentration), induction of HL-60 differentiation
Text: It has been known that human acute myelogenous leukemia cell line HL-60 is differentiated into a neutrophil-like cell by active form of vitamin D. Thus, the cells after the differentiation begin to express a surface marker such as CD11 and CD32 and, at the same time, they produce oxygen radical by stimulation with a phorbol ester. In this test, the above-mentioned property was utilized to assess an ability to induce the differentiation of HL-60 cell of the compounds of the present invention mentioned in the Examples and maxacalcitol using as an indicator the amount of oxygen radical produced by stimulation with a phorbol ester whereby a vitamin D3 activity was compared and investigated. When commercially available reagents and kits were used, they were used according to the indications attached thereto.
(Procedure) HL-60 cells (supplied from ATCC) were seeded on a 96-well plate at 5×10^3 cells/100 μL/well and a test compound in two-fold dilution series from 10^−7 M was added to the second to the twelfth rows (maximum concentration: the second row). The first row was used for blank. Maxacalcitol was added to lines A and B and the compound of the present invention was added to lines C and D. After incubation for 72 hours under a moisturized condition in the presence of 5% CO2 at 37° C. using a CO2 incubator, 101 μL of PBS containing 50 mM WST-1 (manufactured by Takara Bio) and 10 μM phorbol 12,13-didecanoate (manufactured by Sigma) were added to each well followed by incubating for 4 hours more. Absorbance (reference wavelength: 655 nM) at 450 nM of a WST-1 formazan dye generated by conversion from WST-1 by oxygen radical produced from the differentiated HL-60 cells was measured by a Benchmark microplate reader (manufactured by BioRad). An absorbance meter control software MPM 3 (manufactured by BioRad) was used and, from a concentration-absorbance curve, the 50%-maximal effect concentration (hereinafter, referred to as “EC50”) of each was determined by a logistic curve regression.

[5] = Action to raise the urinary excretion of calcium (2), intravenous administration; assay type: in vivo, rat; conditions: male SD rats, intravenous 22.4 nmol/kg; for Urinary excretion of calcium: urine collected during 24 hours after administration; for Ratio of urinary excretion of calcium (to Control): urine collected during 24 hours, relative to control group
Method: The compound of the present invention mentioned in Examples 3 or 8, or maxacalcitol (22.4 nmol/kg) was subjected to an intravenous administration to male rats (7 weeks of age) of the SD strain. A physiological saline containing 0.1% of Triton X 100 was administered to a control group. Calcium concentration in urine collected during 24 hours after the administration was measured and urinary excretion of calcium ([calcium concentration in urine]×[amount of urine]) and ratio of urinary excretion of calcium based on the control group ([calcium amount in urine upon administration of the compound to be tested]/[calcium amount in urine in the control group]) were calculated.

## C=C1/C(=C\C=C2/CCC[C@]3(C)[C@@H]([C@H](C)OC(=O)CCC(C)(C)O)CC[C@@H]23)C[C@@H](O)C[C@@H]1O [Compound of Example 1, (1S,3R,20S)-20-(4-Hydroxy-4-methyl-pentanoyloxy)-9,10-secopregna-5Z,7E,10(19)-trien-1,3-diol]
[1]
  Calcium Concentration in Serum: 11.8 mg/dL
[2]
  Metabolic Rate: 78 pmol/min/mg
[3]
  Urinary excretion of calcium (FIG. 1): no significant increase in urinary excretion of calcium
[4]
  EC50: 2 nM

## C=C1C(=CC=C2CCCC3(C)C2CCC3C(C)OC(=O)CCCC(C)(C)O)CC(O)CC1O [Compound of Example 3, (1S,3R,20S)-20-(5-Hydroxy-5-methylhexanoyloxy)-9,10-secopregna-5Z,7E,10(19)-trien-1,3-diol]
[5]
  Urinary excretion of calcium: 0.66 mg
  Ratio of urinary excretion of calcium (to Control): 93%
[2]
  Metabolic Rate: 22 pmol/min/mg
[4]
  EC50: 2.6 nM

## C=C1C(=CC=C2CCCC3(C)C2CCC3C(C)OC(=O)CC(C)(O)C(F)(F)F)CC(O)CC1O [Compound of Example 4, (1S,3R,20S)-20-(4,4,4-Trifluoro-3-hydroxy-3-methylbutanoyloxy)-9,10-secopregna-5Z,7E,10(19)-trien-1,3-diol]
[4]
  EC50: 0.21 nM

## C=C1C(=CC=C2CCCC3(C)C2CCC3C(C)OC(=O)CC(O)C(C)C)CC(O)CC1O [Compound of Example 5, (1S,3R,20S)-20-(3-Hydroxy-4-methylpentanoyloxy)-9,10-secopregna-5Z,7E,10(19)-trien-1,3-diol]
[4]
  EC50: 1.1 nM

## C=C1C(=CC=C2CCCC3(C)C2CCC3C(C)OC(=O)CC(O)(C(F)(F)F)C(F)(F)F)CC(O)CC1O [Compound of Example 7, (1S,3R,20S)-20-[4,4,4-Trifluoro-3-hydroxy-3-(trifluoromethyl)butanoyloxy]-9,10-secopregna-5Z,7E,10(19)-trien-1,3-diol]
[4]
  EC50: 0.44 nM

## C=C1/C(=C\C=C2/CCC[C@]3(C)[C@@H]([C@H](C)OC(=O)/C=C/C(C)(C)O)CC[C@@H]23)C[C@@H](O)C[C@@H]1O [Compound of Example 8, (1S,3R,20S)-20-[(2E)-4-Hydroxy-4-methylpent-2-enoyloxy]-9,10-secopregna-5Z,7E,10(19)-trien-1,3-diol]
[5]
  Urinary excretion of calcium: 0.89 mg
  Ratio of urinary excretion of calcium (to Control): 125%
[2]
  Metabolic Rate: 38 pmol/min/mg
[4]
  EC50: 3.1 nM

## C=C1C(=CC=C2CCCC3(C)C2CCC3C(C)OC(=O)C=CC(O)(CC)CC)CC(O)CC1O [Compound of Example 10, (1S,3R,20S)-20-[(2E)-4-Ethyl-4-hydroxyhex-2-enoyloxy]-9,10-secopregna-5Z,7E,10(19)-trien-1,3-diol]
[2]
  Metabolic Rate: 58 pmol/min/mg
[4]
  EC50: 1.2 nM

## C=C1C(=CC=C2CCCC3(C)C2CCC3C(C)OC(=O)CC(CC)C(C)O)CC(O)CC1O [Compound of Example 12, (1S,3R,20S)-20-(3-Ethyl-4-hydroxypentanoyloxy)-9,10-secopregna-5Z,7E,10(19)-trien-1,3-diol]
[4]
  EC50: 4.2 nM

## C=C1C(=CC=C2CCCC3(C)C2CCC3C(C)OC(=O)CCC(O)(CC)CC)CC(O)CC1O [Compound of Example 13, (1S,3R,20S)-20-(4-Ethyl-4-hydroxyhexanoyloxy)-9,10-secopregna-5Z,7E,10(19)-trien-1,3-diol]
[2]
  Metabolic Rate: 38 pmol/min/mg
[4]
  EC50: 2.3 nM

## C=C1C(=CC=C2CCCC3(C)C2CCC3C(C)OC(=O)CN(C)CC(C)(C)O)CC(O)CC1O [Compound of Example 19, (1S,3R,20S)-20-[N-(2-Hydroxy-2-methylpropyl)-N-methyl-2-aminoacetyloxy]-9,10-secopregna-5Z,7E,10(19)-trien-1,3-diol]
[4]
  EC50: 4 nM

## C=C1C(=CC=C2CCCC3(C)C2CCC3C(C)OC(=O)CCC2(O)CCCC2)CC(O)CC1O [Compound of Example 20, (1S,3R,20S)-20-[3-(1-Hydroxycyclopentyl)propanoyloxy]-9,10-secopregna-5Z,7E,10(19)-trien-1,3-diol]
[2]
  Metabolic Rate: 39 pmol/min/mg
[4]
  EC50: 1.7 nM

## C=C1C(=CC=C2CCCC3(C)C2CCC3C(C)OC(=O)CC(=O)C(C)(C)O)CC(O)CC1O [Compound of Example 27, (1S,3R,20S)-20-(4-Hydroxy-4-methyl-3-oxo-pentanoyloxy)-9,10-secopregna-5Z,7E,10(19)-trien-1,3-diol]
[4]
  EC50: 3 nM

## C=C1C(=CC=C2CCCC3(C)C2CCC3C(C)OC(=O)CC(=O)C(O)(CC)CC)CC(O)CC1O [Compound of Example 28, (1S,3R,20S)-20-(4-Ethyl-4-hydroxy-3-oxo-hexanoyloxy)-9,10-secopregna-5Z,7E,10(19)-trien-1,3-diol]
[4]
  EC50: 2.5 nM

## C=C1/C(=C\C=C2/CCC[C@]3(C)[C@@H]([C@H](C)OCCC(C)(C)O)CC[C@@H]23)C[C@@H](O)C[C@@H]1O [Maxacalcitol, (1S,3R,20S)-20-(3-hydroxy-3-methylbutyl-oxy)-9,10-secopregna-5Z,7E,10(19)-trien-1,3-diol, reference compound]
[1]
  Calcium Concentration in Serum: 15.0 mg/dL
[5]
  Urinary excretion of calcium: 1.5 mg
  Ratio of urinary excretion of calcium (to Control): 211%
[2]
  Metabolic Rate: 10 pmol/min/mg
[3]
  Urinary excretion of calcium (FIG. 1): increased in a dose-dependent manner
[4]; Homo sapiens
  EC50: 5.4 nM

## (1S,3R,20S)-20-(5-Hydroxy-5-methylheptanoyloxy)-9,10-secopregna-5Z,7E,10(19)-trien-1,3-diol [Compound of Example 11]
[2]
  Metabolic Rate: 23 pmol/min/mg
[4]
  EC50: 4.3 nM
